Molecules are shown by their SMILES. ≈ marks a conversion by molar mass, not a printed value.

Series [1] is described as follows: Drug transport across human Caco-2 cells. Format: in vitro ADME. The settings on record: pH 7.2, 37° C.; for Papp A→B at 10 µM: apical-to-basal, read-out: PEAB; for Papp B→A at 10 µM: basal-to-apical, read-out: PEBA. The source says:
Assay for Determination of Drug Transport Across Human Caco-2 Cells
The assay provides information on the potential of a compound to pass the cell membrane, on the extent of oral absorption as well as on whether the compound is actively transported by uptake and/or efflux transporters. For the measurement of permeability across polarized, confluent human cancer colon carcinoma cells 2 (Caco-2) cell monolayers grown on permeable filter supports are used as the in vitro absorption model.
Apparent permeability coefficients (PE) of the compounds across the Caco-2 monolayers are measured (pH 7.2, 37° C.) in apical-to-basal (AB) (absorptive) and basal-to-apical (BA) (secretory) transport direction. AB permeability (PEAB) represents drug absorption from the intestine into the blood and BA permeability (PEBA) drug secretion from the blood back into the intestine via both passive permeability as well as active transport mechanisms mediated by efflux and uptake transporters that are expressed on the Caco-2 cells. The compounds are assigned to permeability/absorption classes by comparison of the AB permeabilities with the AB permeabilities of reference compounds with known in vitro permeability and oral absorption in the human. Identical or similar permeabilities in both transport directions indicate passive permeation, vectorial permeability points to additional active transport mechanisms. […] Active transport is concentration-dependently saturable.
Caco-2 cells (1-2*10^5 cells/cm^2 area) are seeded on filter inserts (Costar transwell polycarbonate or PET filters, 0.4 μm pore size) and cultured (DMEM) for 10 to 25 days. Compounds are dissolved in appropriate solvent (like DMSO, 1-20 min stock solutions). Stock solutions are diluted with HTP-4 buffer (128.13 min NaCl, 5.36 min KCl, 1 mM MgSO4, 1.8 min CaCl2, 4.17 min NaHCO3, 1.19 min Na2HPO4×7H2O, 0.41 mM NaH2PO4×H2O, 15 min HEPES, 20 min glucose, pH 7.2) to prepare the transport solutions (typically 10 μM compound, final DMSO<=0.5%). The transport solution (TL) is applied to the apical or basolateral donor side for measuring A-B or B-A permeability (3 filter replicates), respectively. The receiver side contains HTP-4 buffer supplemented with 2% BSA. Samples are collected at the start and end of experiment from the donor and at various time intervals for up to 2 hours also from the receiver side for concentration measurement by LC-MS/MS or scintillation counting. Sampled receiver volumes are replaced with fresh receiver solution.

The target in series [2] is T1, neutrophil elastase in human plasma (Homo sapiens, UniProt P08246).
T1 construct: The stimulated blood is centrifuged to generate the neutrophil elastase enriched plasma; from tissue; host or cells: plasma from zymosan-stimulated citrated whole blood of healthy human donors
T1 sequence (P08246 30-267): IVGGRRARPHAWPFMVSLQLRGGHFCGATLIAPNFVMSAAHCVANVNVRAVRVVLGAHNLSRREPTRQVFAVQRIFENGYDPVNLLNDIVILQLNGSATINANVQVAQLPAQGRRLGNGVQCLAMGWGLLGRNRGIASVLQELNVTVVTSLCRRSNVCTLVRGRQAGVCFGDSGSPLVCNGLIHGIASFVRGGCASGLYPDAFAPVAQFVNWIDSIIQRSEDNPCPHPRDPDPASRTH
Kind of series: Neutrophil elastase inhibitory activity in human plasma. The series is classed as biochemical. The settings on record: zymosan-stimulated human plasma, substrate MeOSuc-Ala-Ala-Pro-Val-AMC 250 μM. How it is done:
Assay for the Determination of Neutrophil Elastase Inhibitory Activity in Human Plasma
Citrated blood from human healthy donors is mixed with zymosan suspension and incubated at room temperature. This leads to the stimulation of neutrophils and the release of neutrophil elastase into the plasma. The stimulated blood is centrifuged to generate the neutrophil elastase enriched plasma.
• A single 45 ml blood sample is taken into a 50 ml tube containing citrate (3.13%, 5 mL) and the tube is gently inverted 4 times. • Immediately after blood sampling, zymosan working solution (5 mL) is added. • After the addition of zymosan working solution, the tubes are capped, mixed gently and incubated at 22° C. for 15 min on a shaker at 20 rpm. • Make 10 ml aliquots after the incubation time. • Centrifuge the 15 ml tubes at 800 g for 15 min at 4° C. in a Jouan centrifuge. • Harvest the plasma and make 1-5 ml aliquots. • Store the plasma at −80° C.
A dose response curve is generated to calculate the EC50 of the inhibitor. The analysis of the data is performed by the calculation of the percentage of fluorescence in the presence of the test compound compared to the fluorescence of the vehicle control after subtracting the background fluorescence: An inhibitor of the neutrophil elastase enzyme will give values between 100% control (no inhibition) and 0% control (complete inhibition).

Series [3] is described as follows: Metabolic stability with human liver microsomes. The series is classed as in vitro ADME. Particulars: pooled human liver microsomes, pH 7.6; human liver microsomes 1 mg/ml, 1 μM compound, 37° C., NADPH; read-out: t1/2 INVITRO. Background: Microsomes from liver hold many membrane-bound enzymes, among them those of drug oxidation.
A further series is described as follows: Aqueous solubility. Particulars: McIlvaine buffer pH 6.8 containing 2.5% DMSO, kinetic from dmso stock, McIlvaine buffer pH 6.8, 2.5% DMSO, 24 h shaking. Format: physicochemical. On the procedure:
Assay for Determination of Aqueous Solubility
Starting from a 10 min DMSO stock solution, aliquots are diluted with acetonitrile/water (1/1) and McIlvaine buffer pH 6.8, respectively. After 24 h of shaking, the solutions or suspensions are filtered and analyzed by LC-UV. The amount dissolved in buffer is compared to the amount dissolved in the acetonitrile/water (1/1) solution. Solubility is measured from 0.001 to 0.125 mg/ml at a DMSO concentration of 2.5%. If more than 90% of the compound is dissolved in buffer, the value is marked with “>”.

Series [4] has as its target T2, Human neutrophil elastase (Homo sapiens, UniProt P08246).
T2 construct: purchased Calbiochem 324681
T2 sequence (P08246 30-247 limits assumed): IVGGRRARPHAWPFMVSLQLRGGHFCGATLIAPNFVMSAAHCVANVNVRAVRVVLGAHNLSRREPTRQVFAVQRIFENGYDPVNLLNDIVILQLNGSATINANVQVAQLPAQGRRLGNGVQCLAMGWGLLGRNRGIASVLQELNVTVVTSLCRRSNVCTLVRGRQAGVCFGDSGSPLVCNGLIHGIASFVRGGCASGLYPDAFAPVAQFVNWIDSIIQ
Kind of series: Human Neutrophil Elastase Assay. The series is classed as biochemical. Particulars: substrate MeOSuc-Ala-Ala-Pro-Val-AMC 250 μM, pH 7.5, room temperature. The source says:
Human Neutrophil Elastase Assay

On to `CN1C(=O)N(c2cccc(C(F)(F)F)c2)C2=C(C(=O)CCC2)C1c1ccc(C#N)cc1S(=O)(=O)CCO` (stereo not shown) [Example 4.3], for which, in series [1], the Papp A→B at 10 µM was 10 ×10⁻⁶ cm/s and the Papp B→A at 10 µM was 120 ×10⁻⁶ cm/s. Besides, the midpoint of the response in series [2], the EC50, lay at 2 nM. In addition, the half-life at 1 μM in series [3] turned out to be 2.17 h. In addition, the concentration in solution in the series “Aqueous solubility” (solubility at 24 h) was 62 µg/mL (≈ 116 µM). In series [4], it took 1.1 nM to reach half-maximal inhibition (IC50).

On to `CS(=O)(=O)c1cc(C#N)ccc1C1C2=C(CCCC2=O)N(c2cccc(C(F)(F)F)c2)C(=O)N1CCO` (stereo not shown) [Example 6, 4-[3-(2-Hydroxy-ethyl)-2,5-dioxo-1-(3-trifluoromethyl-phenyl)-1,2,3,4,5,6,7,8-octahydro-quinazolin-4-yl]-3-methanesulfonyl-benzonitrile], for which, in series [1], the Papp A→B at 10 µM was found to be 3.9 ×10⁻⁶ cm/s and the Papp B→A at 10 µM was determined as 68 ×10⁻⁶ cm/s. Besides, the midpoint of the response in series [2], the EC50, lay at 1 nM. For the same molecule, in series [3], the half-life at 1 μM was more than 2.17 h. Besides, in the series “Aqueous solubility”, the concentration in solution (solubility at 24 h) was 72 µg/mL (≈ 135 µM). In addition, the concentration for half-maximal inhibition (IC50) – broadly, the point on the concentration scale where inhibition reaches its midpoint – in series [4] was less than 1 nM.

As for `CS(=O)(=O)c1cc(C#N)ccc1C1C2=C(CCCC2=O)N(c2cccc(C(F)(F)F)c2)C(=O)N1CC1COC1` (single isomer, unassigned) [Example 5A, 3-Methanesulfonyl-4-[3-oxetan-3-ylmethyl-2,5-dioxo-1-(3-trifluoromethyl-phenyl)-1,2,3,4,5,6,7,8-octahydro-quinazolin-4-yl]-benzonitrile], in series [1], the Papp A→B at 10 µM stood at 12 ×10⁻⁶ cm/s and the Papp B→A at 10 µM was 89 ×10⁻⁶ cm/s. For the same molecule, in series [2], the EC50 – broadly, the concentration that produces a half-maximal response – stood at 1 nM. In addition, in series [3], the half-life at 1 μM came out at 1.23 h. It took 1 nM to reach half-maximal inhibition in series [4] (IC50).

As to `CN1C(=O)N(c2cccc(C(F)(F)F)c2)C2=C(C(=O)CCC2)C1c1ccc(C#N)cc1[S+](C)[O-]` (single isomer, unassigned) [Example 2.1A, 3-Methanesulfinyl-4-[3-methyl-2,5-dioxo-1-(3-trifluoromethyl-phenyl)-1,2,3,4,5,6,7,8-octahydro-quinazolin-4-yl]-benzonitrile], in series [1], the Papp A→B at 10 µM amounted to 4.1 ×10⁻⁶ cm/s and the Papp B→A at 10 µM was 58 ×10⁻⁶ cm/s. In series [2], this molecule came in with an EC50 of less than 1 nM. Besides, in series [3], the half-life at 1 μM was found to be 0.967 h. For the same molecule, in “Aqueous solubility”, the concentration in solution (solubility at 24 h) was 65 µg/mL (≈ 133 µM). The same molecule returned an IC50 in series [4] of less than 1 nM.

Regarding `CN1C(=O)N(c2cccc(C(F)(F)F)c2)C2=C(C(=O)CCC2)C1c1ccc(C#N)cc1S(=O)(=O)CCCO` (stereo not shown) [Example 4.4], in series [1], the Papp A→B at 10 µM came out at 8.4 ×10⁻⁶ cm/s and the Papp B→A at 10 µM worked out at 110 ×10⁻⁶ cm/s. For the same molecule, the EC50 in series [2] worked out at 2 nM. The half-life at 1 μM in series [3] is 1.67 h. In addition, in series [4], the 50% inhibitory concentration (IC50) is less than 1 nM.

(Values after patent US9440930B2, “Substituted bicyclic dihydropyrimidinones and their use as inhibitors of neutrophil elastase activity” (Boehringer Ingelheim International GmbH, priority 2014, dated 2016).)
